These results are taken from patent US20060009506A1, “Drugs for the treatment of neoplastic disorders” (Odyssey Thera, Inc., priority 2004, published 2006).

For one assay, the system named is A549 cells. The experiment in a line: MTT proliferation assay, non-small cell lung carcinoma A549. The following applies: Homo sapiens, Tumor Cell: NSCLC (A549), concentrations tested in microM. It is filed as cell-based, Human. An excerpt:
(§1) We first screened compounds derived from the known pharmacopeia and from a selected natural product collection using two types of assays: (a) measurements of post-translational modifications of proteins; (b) measurements of protein-protein interactions. For the purpose of measuring post-translational modifications of proteins, we used immunofluorescence methods combined with phospho-specific antibodies. For the purpose of quantifying and localizing protein complexes we used fluorescence methods based on protein-fragment complementation assays (PCA). ‘Hits’ from the initial screens were then tested for antiproliferative activity in up to 5 different human tumor cell lines. […] For drugs with antiproliferative activity in PC-3 cells, dose-response curves were generated to determine the EC50 for antiproliferative activity and additional tumor cell lines were tested to determine the breadth of activity. Methods for assay development, validation, screening, and testing of antiproliferative activity are described below.
(§2) Cells were maintained in various media as follows: A549, LoVo and PC-3 (Ham's F12K medium with 2 mM L-glutamine and 1.5 g/L sodium bicarbonate), MIA PaCa-2 (Dulbecco's modified Eagle's medium with 4 mM L-glutamine and 4.5 g/L glucose), U87-MG (MEM+Earle's BSS). Medium for each cell line was supplemented with 10% FBS and […] Penecillin/Streptomycin. All cells were grown in incubators set at 37° C., 5% CO2. Thiazolyl Blue Tetrazolium Bromide (MTT) based proliferation assays were performed to assess the anti-proliferative activities of the compounds on these cells. Cells were seeded in 96 well plates at a density of 750 cells/well 24 hours prior to compound treatment. The cells were incubated with varying concentrations of compounds for 120 hours. […] Drug treatment was performed in 5 replicate wells. Background absorbance was established by wells containing medium but no cells. Vehicle (DMSO) only was used as control. MTT (Sigma-Aldrich, St. Louis, Mo.) was added to each well at a final concentration of 0.5 mg/ml. Following a 2 hour incubation at 37° C., medium in the wells was replaced with 0.15 ml DMSO. The plates were agitated for 15 min using a microtiter plate shaker.
(In general: Tetrazolium dyes change colour on reduction, which living cells bring about.)

For another assay, the system named is U-87 MG cells. As to the kind of experiment: MTT proliferation assay, glioblastoma U-87 MG. In kind it is cell-based. The following applies: Homo sapiens, Tumor Cell: Glioblastoma (U-87 MG), 120 hours, concentrations tested in microM.
Description: as §1, §2

Another assay relates to PC-3 cells. As to the kind of experiment: MTT proliferation assay, prostate adenocarcinoma PC-3. To be noted: for IC50: Homo sapiens, Tumor Cell: Prostate (PC-3), MTT, 120 hours, concentrations tested in microM. In kind it is cell-based, Human.
Description: as §1, §2

In a further assay the test system is MIA PaCa-2 cells. As to the kind of experiment: MTT proliferation assay, pancreatic carcinoma MIA PaCa-2. It is filed as cell-based. The following applies: Homo sapiens, Tumor Cell: Pancreatic (MIA PaCa-2), concentrations tested in microM.
Description: as §1, §2

The subject of another assay is cancer cells. As to the kind of experiment: Antiproliferative activity against cancer cells (cell line not stated). To be noted: general statement. In kind it is cell-based, human.
Description: as §1
Cells were maintained in various media as follows: A549, LoVo and PC-3 (Ham's F12K medium with 2 mM L-glutamine and 1.5 g/L sodium bicarbonate), MIA PaCa-2 (Dulbecco's modified Eagle's medium with 4 mM L-glutamine and 4.5 g/L glucose), U87-MG (MEM+Earle's BSS). Medium for each cell line was supplemented with 10% FBS and […] Penecillin/Streptomycin. All cells were grown in incubators set at 37° C., 5% CO2. Thiazolyl Blue Tetrazolium Bromide (MTT) based proliferation assays were performed to assess the anti-proliferative activities of the compounds on these cells. Cells were seeded in 96 well plates at a density of 750 cells/well 24 hours prior to compound treatment. The cells were incubated with varying concentrations of compounds for 120 hours. Compound concentrations range from 0.03 to 100 microM (half log increments) except for alpha-Tomatine (0.001-100 microM, half log increments), Neriifolin (0.0002-100 microM) and Peruvoside (0.01-100 microM). Drug treatment was performed in 5 replicate wells. Background absorbance was established by wells containing medium but no cells. Vehicle (DMSO) only was used as control. MTT (Sigma-Aldrich, St. Louis, Mo.) was added to each well at a final concentration of 0.5 mg/ml. Following a 2 hour incubation at 37° C., medium in the wells was replaced with 0.15 ml DMSO. The plates were agitated for 15 min using a microtiter plate shaker. […] Mean absorbance values were calculated from 5 replicate wells of each drug treatment following subtraction of background absorbance from blank samples and plotted as a percentage of control.

The next assay has as its system LoVo cells. As to the kind of experiment: MTT proliferation assay, colon adenocarcinoma LoVo. It is filed as cell-based. To be noted: Homo sapiens, Tumor Cell: Colon (LoVo), 120 hours, concentrations tested in microM.
Description: as §1, §2

The subject of another assay is cancer pathways. As to the kind of experiment: Screening of cancer pathways in human cells (PCA and phospho-immunofluorescence). It is filed as cell-based. The following applies: cancer pathway in which the drug was active; screened at 10 micromolar, HEK293 cells.
Description: as §1
Immunofluorescence was performed on drug-treated cells using antibodies that specifically recognize phosphorylated forms of key signaling proteins. HEK293T cells were seeded in black-walled, poly-lysine coated 96-well plates (Greiner) at a density of 30,000/well. After 24 hours, cells in duplicate wells were treated with drugs. 100 ng/ml hEGF added to the cells during the last 5 min of drug treatment. The cells were rinsed once with PBS and fixed with 4% formaldehyde for 10 min. The cells were subsequently permeabilized with 0.25% Triton X-100 in PBS and incubated with 3% BSA for 30 min to block non-specific antibody binding. Each of the 4 sets of identically treated cells were then incubated with rabbit antibodies against phosphorylated CREB (Ser133), hsp27 (Ser82), pERK (T202/Y204) (Cell Signaling), or BSA in PBS. The cells were rinsed with PBS and incubated with Alexa488 conjugated goat anti-rabbit secondary antibody (Molecular Probes). Cell nuclei were stained with Hoechst33342 (Molecular Probes). Images were acquired using Discovery-1 High Content Imaging System (Molecular Devices). Background fluorescence due to nonspecific binding by the secondary antibody was established with the use of cells that were incubated with BSA/PBS and without primary antibodies. Fluorescence intensities were quantitated using Image J-based image analysis algorithm as described below.
Reporter fragments for PCA were generated by oligonucleotide synthesis (Blue Heron Biotechnology, Bothell, Wash.). First, oligonucleotides coding for polypeptide fragments YFP[1]and YFP[2] […] Next, PCR mutagenesis was used to generate the mutant fragments IFP[1] and IFP[2]. The IFP[1] fragment corresponds to YFP[1]-(F46L, F64L, M153T) and the IFP[2] fragment corresponds to YFP[2]-(V163A, S175G). […] The YFP[1], YFP[2], IFP[1] and IFP[2] fragments were amplified by PCR to incorporate restriction sites and a linker sequence, described below, in configurations that would allow fusion of a gene of interest to either the 5′- or 3′-end of each reporter fragment. The reporter-linker fragment cassettes were subcloned into a mammalian expression vector (pcDNA3.1Z, Invitrogen) that had been modified to incorporate the replication origin (oriP) of the Epstein Barr virus (EBV). […] Additionally, these vectors still retain the SV40 origin, allowing for episomal expression in cell lines expressing the SV40 large T antigen (e.g. HEK293T, Jurkat or COS). […] PCA fusion constructs were prepared for a large number of proteins known to participate in cellular pathways (Table 1 and Table 2). The full coding sequence for each gene of interest was amplified by PCR from a sequence-verified full-length cDNA.

SMILES strings stand for the structures.

What is called IC50 is the concentration that inhibits the measured activity by half. Consider `CC(C)(C)c1ccc(C(O)CCCN2CCC(C(O)(c3ccccc3)c3ccccc3)CC2)cc1` (stereo not shown) [Terfenadine], for which the IC50 was 0.55 µM in the assay with A549 cells (A549, 120 h); 0.38 µM in the assay on U-87 MG cells; 1.32 µM with PC-3 cells; 0.35 µM in the assay with MIA PaCa-2 cells (MIA PaCa-2, 120 h); 0.99 µM with LoVo cells. Further, the “Antiproliferative activity against cancer cells” value in the assay with cancer cells is on record as “substantial antiproliferative activity”. The “Pathway Activity” value with cancer pathways was “invasion/metastasis”.
Consider `Cc1cccc(Nc2cc(Cl)nc(SCC(=O)O)n2)c1C` [WY-14643], for which the “Antiproliferative activity in the PC-3 assay” value in the assay on PC-3 cells (FIG. 1, compared to DMSO control) was “inactive”.
Turning to `COC(=O)[C@H]1[C@H]2C[C@H]3c4[nH]c5cc(OC)ccc5c4CCN3C[C@H]2C[C@@H](OC(=O)c2cc(OC)c(OC)c(OC)c2)[C@@H]1OC` [Isoreserpine], the IC50 with A549 cells (A549, 120 h) was 3.95 µM; with U-87 MG cells it was 9.02 µM; in the assay on PC-3 cells it was 11.7 µM; in the assay with MIA PaCa-2 cells (MIA PaCa-2, 120 h), 3.92 µM; in the assay on LoVo cells, 2.73 µM. In addition, the “Antiproliferative activity against cancer cells” value in the assay with cancer cells is listed as “substantial antiproliferative activity”. Also, in the assay on cancer pathways, the “Pathway Activity” value is reported as “apoptosis”.
`CC(C)c1c(C(=O)Nc2ccccc2)c(-c2ccccc2)c(-c2ccc(F)cc2)n1CC[C@@H](O)C[C@@H](O)CC(=O)O` [Atorvastatin] displayed an IC50 in the assay with U-87 MG cells of 4.6 µM. In addition, the “Antiproliferative activity against cancer cells” value with cancer cells was “substantial antiproliferative activity”. Further, the “Pathway Activity” value in the assay on cancer pathways was “invasion/metastasis”.
As for `O=C(Nc1ccc([N+](=O)[O-])cc1Cl)c1cc(Cl)ccc1O` [Niclosamide], the half-inhibitory concentration (IC50) with A549 cells (A549, 120 h) was 0.66 µM; in the assay with U-87 MG cells, 0.81 µM; in the assay with PC-3 cells it was 1.33 µM; in the assay on MIA PaCa-2 cells (MIA PaCa-2, 120 h), 0.59 µM; in the assay on LoVo cells, 0.45 µM. For the same compound, the “Antiproliferative activity against cancer cells” value with cancer cells is recorded as “substantial antiproliferative activity”. Besides, the “Pathway Activity” value with cancer pathways is “apoptosis”.
Turning to `Oc1ccc(Cl)cc1Cc1cc(Cl)ccc1O` [Dichlorophene], the IC50 in the assay with A549 cells (A549, 120 h) was 9.83 µM; in the assay on MIA PaCa-2 cells (MIA PaCa-2, 120 h), 25.8 µM. For the same compound, the “Antiproliferative activity against cancer cells” value with cancer cells is recorded as “substantial antiproliferative activity”. In the assay on cancer pathways, the “Pathway Activity” value was “proliferation”.
For the compound `CC1(C)CCC2=C(O1)c1ccccc1C(=O)C2=O` [beta-Lapachone], the IC50 turned out to be 0.23 µM with A549 cells (A549, 120 h); 0.86 µM with U-87 MG cells; 0.63 µM in the assay with PC-3 cells; 0.77 µM in the assay on MIA PaCa-2 cells (MIA PaCa-2, 120 h); 1.4 µM in the assay on LoVo cells. Moreover, the “Antiproliferative activity against cancer cells” value in the assay on cancer cells is “substantial antiproliferative activity”. The “Pathway Activity” value in the assay with cancer pathways is “apoptosis”.
Consider `O=C(CCCN1CC=C(n2c(=O)[nH]c3ccccc32)CC1)c1ccc(F)cc1` [Droperidol], for which the IC50 in the assay with A549 cells (A549, 120 h) stood at 29.4 µM; with MIA PaCa-2 cells (MIA PaCa-2, 120 h), 13.9 µM. Further, the “Antiproliferative activity against cancer cells” value with cancer cells is “substantial antiproliferative activity”. Besides, the “Pathway Activity” value with cancer pathways is given as “invasion/metastasis”.
With `CN(C)CCCN1c2ccccc2Sc2ccccc21` [Promazine], the IC50 stood at 11.9 µM in the assay with A549 cells (A549, 120 h) and 1.97 µM with MIA PaCa-2 cells (MIA PaCa-2, 120 h). Besides, in the assay on cancer cells, the “Antiproliferative activity against cancer cells” value is given as “substantial antiproliferative activity”. For the same compound, the “Pathway Activity” value in the assay on cancer pathways was “proliferation”.
For `CCCSc1ccc2nc(NC(=O)OC)[nH]c2c1` [Albendazole], the IC50 amounted to 0.28 µM in the assay with A549 cells (120 hours) and 0.14 µM in the assay with MIA PaCa-2 cells (120 hours). The “Antiproliferative activity against cancer cells” value in the assay on cancer cells is reported as “substantial antiproliferative activity”. Besides, the “Pathway Activity” value in the assay on cancer pathways is given as “invasion/metastasis”.
For `CO[C@H]1[C@H](O)[C@H](O[C@H]2CC[C@@]3(C)[C@H](CC[C@@H]4[C@@H]3CC[C@]3(C)[C@@H](C5=CC(=O)OC5)CC[C@]43O)C2)O[C@@H](C)[C@@H]1O` [Neriifolin], in that order: 0.006 µM, 0.003 µM, “substantial antiproliferative activity” and “invasion/metastasis”.
